Assay results published in the supplement of paper PMC9013687.

Test system: Danio rerio embryo
Assay: EC10 Head-trunk angle_Decrease; higher = less potent
Conditions: exposure time: 2 dpf
Description: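 Zebrafish embryos (UFZ-OBI strain) were exposed from 2 hpf for 48 h (2 dpf) or 96 h (4 dpf) at 28 °C; spontaneous tail coiling was scored at 25 hpf. Morphological features from automated image analysis (FishInspector), heart rate and locomotor response were fitted with drc models. Quantal endpoints were dichotomised at 2.5 SD from controls and fitted with a log-logistic model; heart rate, pigmentation and STC were normalised to the replicate control mean. Betamethasone was tested as betamethasone dipropionate, diflorasone as diflorasone diacetate.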

C[Si](Cn1cncn1)(c1ccc(F)cc1)c1ccc(F)cc1 [Flusilazole]
EC10 Head-trunk angle Decrease: 4.35 µM
